Data on two compounds can be found in US20170216219A1, “THERAPEUTIC NANOPARTICLES FOR ACCUMULATION IN THE BRAIN” (UNIVERSITY OF GEORGIA RESEARCH FOUNDATION, INC., priority 2014, published 2017).

Each structure is given as a SMILES string.

Holding throughout (assay type): cell-based, Human
Data set [1] concerns NSCs. The experiment in a line: Cytotoxicity by MTT assay against NSCs. The settings on record: concentrations used in the cytokine studies. The procedure:
(§1) Human induced pluripotent stem cell-derived neural stem cells (HIP™ hNSC BC1, GlobalStem®, Rockville, Md.) used for the in vitro portion of this study. NSCs were maintained on matrigel-coated tissue culture dishes in neural stem cell media composed of neural basal medium, 2% B-27 supplement, 1% non-essential amino acids, 2 mM L-alanine/L-glutamine, 1% penicillin/streptomycin, and 20 ng/mL bFGF. The media was changed every other day. When NSCs reached confluence (approximately every 4 to 5 days), cells were enzymatically passaged using Accutase and removed from the dish using a cell scrapper. Cells were split at a 1:4 ratio. To prepare NSCs for MTT and ROS Reduction assays, NSCs were plated in matrigel-coated 96-well dishes at a ratio of 40,000 cells per well in neural stem cell media.
The cytotoxic behavior of all the NPs was evaluated by using the MTT assay against NSCs. Cells (40,000 cells/well) were seeded on a 96-well plate in 100 μL of NSC basal complete medium and incubated for 24 h. The cells were treated with NPs at varying concentrations (with respect to prednisone and CoQ10) and incubated at 37° C. […] The medium was removed, the cells were lysed with 100 μL of DMSO, and the absorbance of the purple formazan was recorded at 550 nm using a Bio-Tek Synergy HT microplate reader. Each well was performed in triplicate and a background reading was recorded at 800 nm.
On the technique in general: Formazan colour is commonly taken as a measure of viable cells.

A further data set has as its system LPS stimulated NSCs. The experiment in a line: Anti-inflammatory properties in LPS stimulated NSCs (cytokine ELISA). The settings on record: LPS 100 ng/mL 36 h, 1 μM.
Source text: Immunosuppressant corticoid based rugs such as prednisone can exert biphasic effects on neuronal mitochondrial dynamics. A low level of prednisone and chronic high levels can attenuate various aspects of mitochondrial function. […] Inflammatory cytokines like TNF-α and IL-6 are closely linked to TBI and these cytokines have a negative effect on damaged tissue. Therefore limiting inflammatory cytokine activity is of major benefit in reducing TBI tissue damage. We used lipopolysaccharide (LPS) to stimulate TNF-α and IL-6 production in NSCs to understand the anti-inflammatory effects of prednisone-NPs and CoQ10-NPs in an in vitro model (FIG. 6C). […] The T and NT NPs containing prednisone reduced the levels of IL-6 in the LPS stimulated NSCs. The addition of T or NT-CoQ10-NPs to prednisone NPs increased the efficiency of IL-6 reduction. […] IL-10 is primarily an anti-inflammatory cytokine with potent inhibitory effects on several pro-inflammatory mediators. […] IL-12 has immune-inflammatory responses in the brain; however the consequences of local production of IL-12 on spontaneous immune responses are unknown. […] The exact mechanism why only mitochondria targeted therapy produces IL-12 from the NSCs warrants further investigation.
as §1, with “To prepare NSCs for MTT and ROS Reduction assays, NSCs were plated in matrigel-coated 96-well dishes at a ratio of 40,000 cells per well in neural stem cell media.” left out
NSCs were plated on each well of a 12-well plate at a density of […] per well and allowed to grow overnight (NSC basal media in 200 μL). […] The absorbance was recorded at 450 nm using a BioTek Synergy HT well plate reader.
(In general: An ELISA detects its analyte on a solid surface through an enzyme-linked reagent.)

Data set [2] concerns NSCs. The experiment in a line: Antioxidative properties by Seahorse analyzer (OCR) in H2O2 treated NSCs. As to conditions: H2O2 10 μM, 1 μM with respect to CoQ10. From the text:
Oxidative stress induced by the production of ROS including free radicals and peroxides is one of the major mechanisms, which leads to neuronal destruction and is closely related to apoptosis and necrosis in these cells during TBI. Mitochondria are well known to be a major source of ROS production. CoQ10 is endogenously synthesized in mammalian mitochondria, acts as both antioxidant and pro-oxidant, and is involved in shuttling electrons from complexes I or II and a number of other electron donors, including electron transfer factor, which moves electrons from fatty acid beta oxidation. CoQ10 is found in all cell and organelle membranes, where it can participate in redox shuttling. However, defects in CoQ10 biosynthesis can be found during TBI. […]
T-CoQ10-NPs, NT-CoQ10-NPs, and free CoQ10 were tested for their ability to reduce oxidative stress in NSCs. […] The cells were monitored for changes in oxygen consumption rate (OCR) with respect to time. A basal reading was acquired for 45 min and then H2O2(10 μM) was injected. The OCR was monitored for 90 min and T-CoQ10-NPs (1 μM with respect to CoQ10), NT-CoQ10-NPs (1 μM with respect to CoQ10), and free CoQ10 (1 μM) were injected. The OCR levels were then further measured for 4.5 h. As a control, cells were also monitored with no treatment or only treatment of H2O2(10 μM).

In the case of `COC1=C(OC)C(=O)C(C/C=C(\C)CC/C=C(\C)CC/C=C(\C)CC/C=C(\C)CC/C=C(\C)CC/C=C(\C)CC/C=C(\C)CC/C=C(\C)CC/C=C(\C)CCC=C(C)C)=C(C)C1=O` [CoQ10, coenzyme Q10], the “cytotoxic effects (MTT)” value in the data set with NSCs [1] is listed as “did not show any cytotoxic effects”. The IL-10 entry in the data set with LPS stimulated NSCs is on record as “elevated”. Further, the “effect on H2O2 mediated oxidative stress (OCR)” value with NSCs [2] was “less efficiency in oxidative stress reduction”.

On to `C[C@]12C=CC(=O)C=C1CC[C@@H]1[C@@H]2C(=O)C[C@@]2(C)[C@H]1CC[C@]2(O)C(=O)CO` [prednisone], for which the “cytotoxic effects (MTT)” value in the data set on NSCs [1] was “did not show any cytotoxic effects”. Moreover, in the data set with LPS stimulated NSCs, the IL-10 entry is “elevated” and the “TNF-α secretion induced by LPS” value was “significantly reduced”.
